Data from the OligoGym collection.
After the bases stand the sugars from the 5' end (letter, count) and the backbone: PS all phosphorothioate, else s phosphorothioate and o phosphodiester by linkage. Methylation of C is not given here. e = 2'-O-(2-methoxyethyl) (MOE); k = constrained ethyl (cEt); d = 2'-deoxy (DNA); m = 2'-O-methyl

Molecular target: HSD17B13
Conditions: ASO, HepaRG

Row | Sequence | target mRNA inhibition (1 µM) [%] | also measured
1 | TGGAATGCTACTTGAA (sugars k3 d10 k3, PS) | 85 | target mRNA inhibition (0.02 µM): 0%; target mRNA inhibition (0.078 µM): 22%; target mRNA inhibition (0.313 µM): 55%; target mRNA inhibition (1.25 µM): 71%; target mRNA inhibition (5 µM): 90%
2 | TGGATATACTGTCCCA (sugars k3 d10 k3, PS) | 24 | –
3 | TGGTAAACTGTATGCC (sugars k3 d10 k3, PS) | 76 | target mRNA inhibition (0.02 µM): 0%; target mRNA inhibition (0.078 µM): 3%; target mRNA inhibition (0.313 µM): 40%; target mRNA inhibition (1.25 µM): 72%; target mRNA inhibition (5 µM): 85%
4 | TGGTAAGTATTCCATC (sugars k3 d10 k3, PS) | 26 | –
5 | TGGTAGCTTGCTCACT (sugars k3 d10 k3, PS) | 71 | target mRNA inhibition (0.02 µM): 16%; target mRNA inhibition (0.078 µM): 31%; target mRNA inhibition (0.313 µM): 48%; target mRNA inhibition (1.25 µM): 72%; target mRNA inhibition (5 µM): 81%
6 | TGGTCTAAAGTGCTGG (sugars k3 d10 k3, PS) | 61 | –
7 | TGTAAGAGTCAGTATC (sugars k3 d9 k3 e1, PS) | 46 | –
8 | TGTAAGAGTCAGTATC (sugars k3 d10 k3, PS) | 43 | –
9 | TGTACAAATTTATGCC (sugars k3 d10 k3, PS) | 67 | –
10 | TGTAGTGGGAGTCGGA (sugars k3 d10 k3, PS) | 62 | –
11 | TGTAGTGGGAGTCGGA (sugars kkdddddddddkekek, PS) | 27 | –
12 | TGTATAGCTGCATTTC (sugars k3 d10 k3, PS) | 37 | –
13 | TGTATTAAGACAGTTG (sugars k3 d10 k3, PS) | 34 | –
14 | TGTCATAAAAATCGCT (sugars k3 d10 k3, PS) | 57 | –
15 | TGTCCACCTTTAAATG (sugars k3 d9 k3 e1, PS) | 28 | –
16 | TGTCCAGGTTGAGATA (sugars k3 d1 m1 d8 k3, PS) | 41 | –
17 | TGTCCAGGTTGAGATA (sugars kkdddddddddkekek, PS) | 48 | –
18 | TGTGATTGAGTTCTCC (sugars k3 d1 m1 d8 k3, PS) | 34 | –
19 | TGTGTTCTTGTTGATA (sugars k3 d9 k3 e1, PS) | 65 | –

Row | Sequence | target mRNA inhibition (1 µM) [%] | also measured
20 | TGTTATCTCAAGTCAG (sugars k3 d10 k3, PS) | 81 | target mRNA inhibition (0.02 µM): 0%; target mRNA inhibition (0.078 µM): 0%; target mRNA inhibition (0.313 µM): 31%; target mRNA inhibition (1.25 µM): 54%; target mRNA inhibition (5 µM): 81%
21 | TGTTTTAGTATTTGGG (sugars k3 d10 k3, PS) | 48 | –
22 | TTAAACCTTCCCTGTG (sugars kkdddddddddkekek, PS) | 0 | –
23 | TTAAGATACCCAGGTT (sugars k3 d9 k3 e1, PS) | 51 | –
24 | TTAAGATACCCAGGTT (sugars kkdddddddddkekek, PS) | 48 | –
25 | TTAAGGATCATTGCAG (sugars k3 d10 k3, PS) | 14 | –
26 | TTAATACGACTTCCTT (sugars k3 d10 k3, PS) | 35 | –
27 | TTAATGCCACCCTACC (sugars kkdddddddddkekek, PS) | 11 | –
28 | TTAATTTTCGGGTTCT (sugars k3 d10 k3, PS) | 31 | –
29 | TTACAGCATCAAGACA (sugars k3 d9 k3 e1, PS) | 44 | –
30 | TTACAGCATCAAGACA (sugars k3 d10 k3, PS) | 46 | –
31 | TTAGAAACTGCTCCTC (sugars k3 d10 k3, PS) | 48 | –
32 | TTAGAATACGCTGAGA (sugars k3 d10 k3, PS) | 48 | –
33 | TTAGAGTGCTTAGTTC (sugars k3 d10 k3, PS) | 58 | –
34 | TTAGGGAGGTAGCTTT (sugars k3 d10 k3, PS) | 54 | –
35 | TTAGTACCAAGACACT (sugars k3 d10 k3, PS) | 41 | –
36 | TTAGTATTTGGGTGTT (sugars k3 d10 k3, PS) | 29 | –
37 | TTAGTTAGAATAGTCT (sugars k3 d10 k3, PS) | 8 | –
